Data on four compounds can be found in publication PMC11489206, “Transport of perfluoroalkyl substances across human induced pluripotent stem cell-derived intestinal epithelial cells in comparison with primary human intestinal epithelial cells and Caco-2 cells” (Archives of Toxicology, 2024).

Series [1] in a line: Transport study across hiPSC-derived IEC layers. As to conditions: human. How it is done: For differentiation into IECs, definitive endoderm cells were subsequently differentiated into intestinal stem cells by changing medium into DMEM/F12 containing 2% fetal bovine serum, 1% GlutaMAX (Gibco) and 250 ng/ml FGF2 (R&D Systems). After 4 days, cells were dissociated using Accutase and seeded onto polyester Transwell inserts (0.4 µm, Corning) coated with Growth Factor Reduced Matrigel #356231. Cells were cultured for 7 days in intestinal differentiation medium (DMEM/F-12 containing 2% fetal bovine serum, 1% non-essential amino acids (Gibco), 1 × B27 (Gibco), 1 × N2 (Gibco), 1% penicillin/streptomycin (Gibco) and 2 mM L-glutamine (Gibco)) supplemented with 20 ng/ml EGF (R&D Systems) and 30 µM Forskolin (Sigma). ROCK inhibitor, y-27632 (final concentration 10 µM; Stem Cell Technologies), was added during the initial 24 h after seeding to reduce cell death. The cells were subsequently cultured for 12 days in intestinal differentiation medium supplemented with 20 ng/ml EGF, 30 µM Forskolin, 5 µM 5-aza-2′-deoxycytidine (Sigma), 20 µM PD98059 (Stem Cell Technologies) and 0.5 µM A-83–01 (Sigma). The medium was refreshed every 2–3 days. Barrier integrity was determined by measuring apical to basolateral translocation of Lucifer yellow (see Supplementary Data for a detailed description).
(§1) Transport studies were performed in Caco-2 cells, hiPSC-derived IECs and EpiIntestinal microtissues. To that end, Caco-2 cell layers were differentiated for 21 days and hiPSCs were differentiated into IEC layers for 26 days, as described above. EpiIntestinal microtissues were subjected to transport studies 1 day after arrival. […] For all models, PFAS transport was assessed in apical to basolateral, and basolateral to apical direction using HBSS containing a mixture of PFASs containing 1 µM of each PFAS. See Supplementary Data for a detailed description of the method used for the transport studies of the model compounds and PFASs.
Prior to exposure to the transport study compounds, the cells were washed with transport medium (HBSS; Sigma). […] 100 µL aliquots were collected from the basolateral compartment and replaced with the same volume HBSS at settled time points (0, 15, 30 and 60 min). For basolateral to apical transport in the EpiIntestinal microtissues, 0.2 mL HBSS was added to the apical compartment and 0.5 mL HBSS containing a mixture of PFASs containing 1 µM of each PFAS, was added to the basolateral compartment. 100 µL aliquots were collected from the apical compartment and replaced with the same volume of HBSS at settled time points (0, 15, 30 and 60 min). For apical to basolateral transport across the Caco-2 cell layers and hiPSC-derived IEC layers, 1.2 mL HBSS was added to the basolateral compartment and 0.4 mL HBSS containing either model compounds (10 µM) or a mixture of PFASs containing 1 µM of each PFAS, was added to the apical compartment. 100 µL aliquots were collected from the basolateral compartment and replaced with the same volume of HBSS at settled time points (0, 7.5, 15, 30 and 60 min for the model compounds with both models and the PFASs with the hiPSC-derived IEC layers and 0, 15, 30 and 60 min for PFASs with the Caco-2 cell layers). For basolateral to apical transport, 0.4 mL HBSS was added to the apical compartment and 1.2 mL HBSS containing 10 µM of the model compounds or a mixture of PFASs containing 1 µM of each PFAS, was added to the basolateral compartment. 100 µL aliquots were collected from the apical compartment and replaced with the same volume of HBSS at settled time points (0, 7.5, 15, 30 and 60 min for the model compounds with both models and the PFASs with the hiPSC-derived IEC layers and 0, 15, 30 and 60 min for PFASs with the Caco-2 cell layers).

The nature of series [2]: Transport study across Caco-2 cell layers. The following applies: human, Caco-2. On the procedure: (§2) Human colorectal adenocarcinoma cells (Caco-2, HTB-37) were obtained from American Type Culture Collection (ATCC, Manassas, VA). Cells were cultured in a humidified incubator (37°C, 5% CO2) in Dulbecco’s modified Eagle’s medium (DMEM) supplemented with 10% heat-inactivated fetal bovine serum (Gibco, Thermo Fisher Scientific, Waltham, MA), 1% non-essential amino acids (Gibco) and 1% penicillin/streptomycin (Sigma). For experiments, Caco-2 cells below passage number 50 were used within 10 passages. They were harvested at 80% confluence using Trypsin/EDTA (0.25%/0.05%; PAN Biotech, Aidenbach, Germany) and seeded at a density of 4 × 10^5 cells/cm^2 into inserts with a polycarbonate membrane (0.4 µm pore, Corning, New York, NY). After 21 days of differentiation (using 500 µl cell culture medium in the apical and 1500 µl in the basolateral compartment), monolayer integrity was determined by measuring transepithelial electrical resistance (TEER) with a Millicell ERS Volt-Ohm meter (Millipore, Bedford, MA).
as §1
(§3) Prior to exposure to the transport study compounds, the cells were washed with transport medium (HBSS; Sigma). […] 100 µL aliquots were collected from the basolateral compartment and replaced with the same volume HBSS at settled time points (0, 15, 30 and 60 min). For basolateral to apical transport in the EpiIntestinal microtissues, 0.2 mL HBSS was added to the apical compartment and 0.5 mL HBSS containing a mixture of PFASs containing 1 µM of each PFAS, was added to the basolateral compartment. 100 µL aliquots were collected from the apical compartment and replaced with the same volume of HBSS at settled time points (0, 15, 30 and 60 min). For apical to basolateral transport across the Caco-2 cell layers and hiPSC-derived IEC layers, 1.2 mL HBSS was added to the basolateral compartment and 0.4 mL HBSS containing either model compounds (10 µM) or a mixture of PFASs containing 1 µM of each PFAS, was added to the apical compartment. 100 µL aliquots were collected from the basolateral compartment and replaced with the same volume of HBSS at settled time points (0, 7.5, 15, 30 and 60 min for the model compounds with both models and the PFASs with the hiPSC-derived IEC layers and 0, 15, 30 and 60 min for PFASs with the Caco-2 cell layers). For basolateral to apical transport, 0.4 mL HBSS was added to the apical compartment and 1.2 mL HBSS containing 10 µM of the model compounds or a mixture of PFASs containing 1 µM of each PFAS, was added to the basolateral compartment. 100 µL aliquots were collected from the apical compartment and replaced with the same volume of HBSS at settled time points (0, 7.5, 15, 30 and 60 min for the model compounds with both models and the PFASs with the hiPSC-derived IEC layers and 0, 15, 30 and 60 min for PFASs with the Caco-2 cell layers). After 60 minutes, all liquid was collected from the apical and basolateral compartment and the cells were lysed in 200 µL RIPA buffer (Thermo Fisher Scientific), and chemicals were quantified in the different compartments (apical, basolateral and cells) in order to calculate the mass balance.
(§4) The apparent permeability coefficient (Papp, cm/s) was calculated using the following equation: […]

The subject of series [3] is hiPSC-derived IEC layers. The arrangement: method as in Kabeya et al. ([2020]). As to conditions: apical to basolateral, ref Kabeya et al. ([2020]); cited from earlier work.
For series [4] the following is noted: ref Ayehunie et al. (2005); cited from earlier work.
Another series relates to EpiIntestinal model. The following applies: apical to basolateral, ref Ayehunie et al. (2005); cited from earlier work.
For a further series, the system named is Caco-2 model. The following applies: cited from earlier work.
A short description of series [5]: Transport study across EpiIntestinal microtissues. The following applies: human. How it is done:
The human EpiIntestinal small intestinal microtissues, consisting of epithelial cells and an underlying lamina propria containing intestinal fibroblasts, were obtained from MatTek Life Sciences (Ashland, USA). Cell culture inserts (8.8 mm ID) were placed in 12-well plates and cells were maintained in 100 µl maintenance medium (MatTek Life Sciences) in the apical compartment and 5 ml maintenance medium in the basolateral compartment upon arrival. The transport studies were performed 1 day after arrival.
as §1, §3, §4
where A is the surface area (cm^2), dQ is the amount of the compound transported (nmol) over the respective time interval dt (s) and C0 is the initial concentration in the donor compartment (µM).

A further series has as its system Caco-2 cell layers. As to the kind of experiment: Transport study across Caco-2 cell layers. As to conditions: Caco-2 model; PFAS mixture 1 µM each; not detected in the basolateral compartment. How it is done:
as §2, §1, §3, §4

Series [6] deals with hiPSC-derived IEC layers. As to the kind of experiment: Barrier integrity: apical to basolateral translocation of lucifer yellow. The series is classed as in vitro ADME, human. The following applies: terminally differentiated IECs; 500 µg/ml apical, 3 hours; data not shown. On the procedure:
The medium was refreshed every 2–3 days.
To determine barrier integrity of the hiPSC-derived IEC layers, apical to basolateral translocation of lucifer yellow was measured. 500 µg/ml Lucifer yellow, in differentiation medium, containing EGF, Forskolin, 5-aza-2′-deoxycytidine, PD98059, A-83-01, was added to the apical compartment (400 µl/insert) and incubated at 37 °C for 3 hours. 50 µl medium was collected from the basolateral compartment at 30 min intervals. The fluorescence intensity was measured at 485 nm excitation and 530 nm emission wavelength using a microplate reader (Synergy HT, BioTek, Winooski, VT).

Where two headings read alike, the source gives them in different places. Marks after values point to notes of the source that are not given here.

`CCCC(=O)Nc1ccc(OCC(O)CNC(C)C)c(C(C)=O)c1` (centres unmarked) [Acebutolol, acebutolol]: the Papp A→B at 60 min, 10 µM in series [1] amounted to 1.95 ± 0.02 ×10⁻⁶ cm/s; in series [2], 0.42 ± 0.03 ×10⁻⁶ cm/s. Also, the Papp B→A at 60 min, 10 µM is 7.17 ± 0.27 ×10⁻⁶ cm/s in [1] and 3.09 ± 0.07 ×10⁻⁶ cm/s in series [2]. Further, the efflux ratio at 60 min, 10 µM in [1] is 3.67; in series [2] it was 7.37. Also, the “Average Papp A–B” value was 2.35 ± 0.88 × 10^–6 cm/s in the series on hiPSC-derived IEC layers [3] and 0.4 ± 0.1^a × 10^–6 cm/s in the series on EpiIntestinal model. Besides, in series [4], the “Fa (fraction absorbed in humans)” value is given as 40%. Besides, the “Average Papp A - B” value in the series on Caco-2 model (ref Ayehunie et al. 2018) is 0.4 ×10⁻⁶ cm/s; in the series with Caco-2 model (ref Kabeya et al. 2020) it was 0.35 ×10⁻⁶ cm/s; in the series with Caco-2 model (ref Liang et al. 2000), 0.51 ×10⁻⁶ cm/s; in the series on Caco-2 model (ref Yazdanian et al. 1998) it was 0.51 ×10⁻⁶ cm/s.
Regarding `CCOC(=O)[C@H](CCc1ccccc1)N[C@@H](C)C(=O)N1CCC[C@H]1C(=O)O` [Enalapril, enalapril], the Papp A→B at 60 min, 10 µM in series [1] came out at 2.95 ± 0.41 ×10⁻⁶ cm/s; in [2], 0.28 ± 0.04 ×10⁻⁶ cm/s. The basolateral-to-apical permeability (Papp B→A) at 60 min, 10 µM in [1] amounted to 3.68 ± 0.1 ×10⁻⁶ cm/s; in series [2] it was 0.43 ± 0.05 ×10⁻⁶ cm/s. Moreover, the efflux ratio at 60 min, 10 µM in series [1] was 1.25; in series [2], 1.55. Also, the “Average Papp A–B” value was 1.93 ± 0.46 × 10^–6 cm/s with hiPSC-derived IEC layers [3] and 0.4 ± 0.2^a × 10^–6 cm/s in the series on EpiIntestinal model. The “Fa (fraction absorbed in humans)” value in series [4] is 40%. For the same compound, the “Average Papp A - B” value in the series on Caco-2 model (ref Ayehunie et al. 2018) was 0.2 ×10⁻⁶ cm/s; in the series on Caco-2 model (ref Grès et al. 1998), 0.62 ×10⁻⁶ cm/s; in the series with Caco-2 model (ref Kabeya et al. 2020) it was 0.19 ×10⁻⁶ cm/s; in the series on Caco-2 model (ref Logoyda et al. 2018), 1.31 ×10⁻⁶ cm/s.
With `O=C(O)C(F)(OC(F)(F)C(F)(F)C(F)(F)F)C(F)(F)F` (centres unmarked) [HFPO-DA, hexafluoropropylene oxide dimer acid], in series [5], the Papp A→B at 60 min, 1 µM is 1.16 ± 0.19 ×10⁻⁶ cm/s; the Papp B→A at 60 min, 1 µM was determined as 1.04 ± 0.09 ×10⁻⁶ cm/s; the efflux ratio at 60 min, 1 µM was 0.9. For the same compound, in series [1], the Papp A→B at 60 min, 1 µM is 3.09 ± 0.09 ×10⁻⁶ cm/s; the basolateral-to-apical permeability (Papp B→A) at 60 min, 1 µM was determined as 4.49 ± 0.27 ×10⁻⁶ cm/s; the efflux ratio at 60 min, 1 µM worked out at 1.45. For the same compound, the Papp B→A at 60 min, 1 µM in series [2] was 1.23 ± 0.25 ×10⁻⁶ cm/s. Also, the “Transport (in words)” value in the series on Caco-2 cell layers is listed as “no transport”.
Consider lucifer yellow, for which the “Apical to basolateral transport of lucifer yellow” value in the series with hiPSC-derived IEC layers [6] was “no quantifiable”.
